Measurements reported in patent publication US20250114367A1, “METHOD OF TREATING HAIR LOSS DISORDERS” (Sun Pharmaceutical Industries, Inc., priority 2023, published 2025).
Where two headings read alike, the source gives them in different places.

Assays:
[1] = Renal impairment study: PK after a single 12 mg oral dose of CTP-543; type: in vivo, human; details: for Tmax / AUC(0-t) / AUC(0-inf) / Cmax / Vd/F / half-life: human, plasma, po, 12 mg; for Tmax / AUC(0-t) / AUC(0-inf) / Cmax / Vd/F / half-life / CL/F (geometric mean) / Clast (geometric mean): single 12 mg oral dose of CTP-543, outlier excluded; for AUC(0-t): read-out: AUC0-Tlast (geometric mean); for AUC(0-inf): read-out: AUC0-inf (geometric mean); for Cmax: read-out: Cmax (geometric mean); for Vd/F: read-out: Vz/F (geometric mean); for half-life: read-out: terminal elimination half-life (geometric mean) (converted)
Excerpt: The study enrolled 8 subjects in the normal renal function cohort, and 8 subjects in the moderate impaired renal function cohort.
The primary endpoint of this study was single dose PK exposure parameters: Cmax, AUC(0-Tlast), and AUC(0-∞).
The secondary endpoints of this study were: • Adverse Events, clinical laboratory findings, physical examinations, ECGs, and vital signs. • Other PK parameters, such as, but not limited to: Tmax, λz, t1/2, CL/F, and Vz/F.
All subjects had samples collected for PK.
PK parameters were determined using non-compartmental analysis (NCA) methods based on individual plasma concentration-time data for all PK analytes.

[2] = system: adult subjects with moderate to severe AA; test: Phase III trial: Brigham Eyebrow Tool for Alopecia (BETA); type: in vivo, human
Protocol: The BETA is a clinician-rated scale developed by dermatologists at Brigham and Women's Hospital that assesses the total eyebrow hair present (Tkachenko, E, et al., Brigham Eyebrow Tool for Alopecia: A Reliable Assessment of Eyebrow Alopecia Areata, Journal of Investigative Dermatology Symposium Proceedings (2020) 20, S41-S44). The BETA is calculated based on hair density (range 0 to 3) and surface area of each individual eyebrow. The BETA score is the sum of the right and left eyebrow scores (range 0 (absent) to 6). An expert panel of certified raters at Brigham and Women's Hospital performed central readings based on photographs of the eyebrows provided by the study sites and determined a score for each subject with eyebrow involvement following each visit where an assessment of eyebrow hair presence was assessed. The BETA was performed at baseline, Week 12, and Week 24. If a subject was unable to attend an in-person clinic visit due to COVID-19, the BETA may not have been performed due to the inability to take photographs of the eyebrows.
A Phase III trial was conducted to assess the efficacy and safety of CTP-543 in adult subjects with moderate to severe AA. Approximately 440 adult male and female subjects 18 to 65 years of age, inclusive, with moderate to severe AA participated in the study. Subjects with definitive diagnosis of AA, and at least 50% hair loss, as defined by a SALT score ≥50, who met all of the inclusion criteria and none of the exclusion criteria participated in the study.
The Screening Period lasted up to 28 days prior to initiation of study drug. […] Randomization was stratified by scalp hair loss into 1 of the following 2 categories: 1) partial scalp hair loss (SALT ≥50 and <95), 2) complete or near complete scalp hair loss (SALT ≥95). […]

[3] = system: subjects with AA; test: Open-label extension (OLE) studies: safety
Protocol: Two separate OLE trials were conducted in North America (CP543.5001) and the European Union (CP543.5002). […] Both OLE trials were similarly designed, except: Trial CP543.5001 (North America) participants have the opportunity to continue in the trial for a maximum of 276 weeks; and Trial CP543.5002 (European Union) participants have the opportunity to continue in the trial for a maximum of 108 weeks.
Subjects receiving any active dose of deuruxolitinib in the qualifying trials were initially assigned to receive either 8 mg BID or 12 mg BID in the OLE trial. Subjects receiving placebo in the qualifying trial were assigned to either deuruxolitinib 8 mg BID or 12 mg BID. Subjects were allowed to switch doses during the OLE after initial treatment assignment at the discretion of the Principal Investigator.

[4] = compared to healthy control subjects
[5] = moderate renal impairment N = 7

## [2H]C1([2H])C([C@@H](CC#N)n2cc(-c3ncnc4[nH]ccc34)cn2)C([2H])([2H])C([2H])([2H])C1([2H])[2H] [CTP-543, (R)-3-(4-(7H-pyrrolo[2,3-d]pyrimidin-4-yl)-1H-pyrazol-1-yl)-3-(cyclopentyl-2,2,3,3,4,4,5,5-d8) propanenitrile]
[1]; [4]
  effect of moderate renal impairment on Cmax: without altering Cmax
  increase of plasma AUC by moderate renal impairment: approximately 24%
[1]; [5]
  Tmax: 0.5 h
  AUC(0-t): 1040 ng·h/mL
  AUC(0-inf): 1050 ng·h/mL
  Cmax: 207 ng/mL
  Vd/F: 72.1 L
  half-life: 4.36 h
  CL/F (geometric mean): 11.3 L/h
  Clast (geometric mean): 0.977 ng/mL
[1]; normal renal function N = 8
  Tmax: 0.71 h
  AUC(0-t): 836 ng·h/mL
  AUC(0-inf): 843 ng·h/mL
  Cmax: 199 ng/mL
  Vd/F: 85.6 L
  half-life: 4.17 h
  CL/F (geometric mean): 14.2 L/h
  Clast (geometric mean): 0.698 ng/mL
[2]; Week 12, 8 mg BID
  BETA score, LS mean change from baseline: 0.8
[2]; Week 12, 12 mg BID
  BETA score, LS mean change from baseline: 0.8
[2]; Week 24, 8 mg BID
  BETA score, LS mean change from baseline: 1.1
[2]; Week 24, 12 mg BID
  BETA score, LS mean change from baseline: 1.4
[3]
  most common adverse events: COVID-19, acne, nasopharyngitis, headache, asymptomatic COVID-19, creatinine phosphokinase increase, and upper respiratory tract infection
